From publication PMC5343891, “Cell Imaging Counting as a Novel Ex Vivo Approach for Investigating Drug-Induced Hepatotoxicity in Zebrafish Larvae” (International Journal of Molecular Sciences, 2017)

Legend:
[1] = system: Tg(fabp10a:DsRed) zebrafish larvae; test: Lethality in zebrafish larvae: maximum non-toxic drug concentration/dose (MC/MD); assay type: in vivo, Zebrafish (Danio rerio); settings: for MC: maximum non-toxic drug concentration: immersion 3-6 dpf, less than 10% larval death at 6 dpf, or highest soluble concentration; for lethality (larval death): immersion, yolk and pericardial injection, up to highest soluble concentration/dose, 6 dpf; for MD: maximum non-toxic drug dose: less than 10% larval death at 6 dpf, or highest dose injectable without precipitation
Excerpt: The results are expressed as percentage of dead larvae relative to the total larvae (mean ± SD).

[2] = system: Tg(fabp10a:DsRed) zebrafish larvae; test: Hepatotoxicity by visual analysis of liver morphology using fluorescence microscopy; assay type: in vivo, Zebrafish (Danio rerio); settings: 6 dpf; for Hepatotoxicity detected: Morphology: vs vehicle control; as to Hepatotoxicity detected: Morphology: key: Bold S: statistically significant difference; NS: no statistically significant difference
Experimental: We observed a range of abnormal liver phenotypes including reduced and enlarged livers (Figure 2). […].
The results are expressed as the percentage of larvae having normal or abnormal liver morphology.
(§1) At 6 dpf treated larvae were anesthetized by 0.5 mM tricaine in a 6 well-plate (Falcon®) and arranged so that they were lying on their right sides with their heads facing left. This enabled us to view the left lateral side of the larvae and the larger lobe of the liver that was scored in a blinded manner under a fluorescence microscope (Leica MZ10F-Dsred channel, 40× magnification, Leica Microsystems, Wetzlar, Germany). Livers were considered abnormal if their typical globular structure underwent gross morphological changes. Images of the livers (including a scale bar) were imported to ImageJ software (National Institutes of Health, Bethesda, MD, USA) for determining the liver size. To that end, the picture was set to scale (functions: analyze, set scale), the liver area extracted (functions: split channel, threshold) and the area calculated (function: analyze particles, settings: size = 0−infinity, circularity = 0.00−1.00).

[3] = system: Tg(fabp10a:DsRed) zebrafish larvae; test: Hepatotoxicity by size analysis of fluorescent 2D liver images (ImageJ); assay type: in vivo, Zebrafish (Danio rerio); settings: for Hepatotoxicity detected: Liver size: 6 dpf, vs vehicle control; for change in liver size: any of the administration routes, vs non-treated animals; as to Hepatotoxicity detected: Liver size: key: Bold S: statistically significant difference; NS: no statistically significant difference
Experimental: Next, the 2D images obtained in the previous section were used to analyze the size of the fluorescent livers by ImageJ software. […].
as §1

[4] = Pharmacokinetics in zebrafish larvae (larval extracts, UHPLC-UV); assay type: in vivo, Zebrafish (Danio rerio); settings: 0-24 h post treatment; for course of larval concentration after injection: yolk and pericardial injection at MD
Experimental: At given time points (0, 2, 6, 12 and 24 h), treated larvae were collected and transferred to 1.5 mL Eppendorf® tubes pre-filled with acid washed glass beads (diameter: 710–1180 µm, Sigma-Aldrich) and 270 µL of extraction medium (1:2 water:methanol, each containing 0.1% formic acid) was added (10 larvae per Eppendorf® tube). Samples were centrifuged for 15 s at 14,100× g (Eppendorf Mini Spin Plus, Hamburg, Germany) to insure high homogenization efficiency. Subsequently, the samples were homogenized with ultrasonication (Diagenode Bioruptor Plus, Seraing, Belgium) at +4 °C and high energy input setting to ensure the highest possible disruption of the cells. The overall treatment time was 15 min spread over 30 cycles of 30 s treatment followed by pauses of 30 s in-between. Six samples were homogenized during each treatment cycle. Subsequently, treated samples were centrifuged at 14,100× g for 15 min and 200 µL of supernatant was transferred to an empty Eppendorf tube (1.5 mL) and stored on ice until all samples were processed. All samples were then placed into a vacuum oven (Model 1410, Sheldon Manufacturing Inc., Cornelius, OR, USA) and evaporated until dry at +45 °C during 45 min. The samples were then reconstituted with a mobile phase-like solution (6% acetonitrile in water), vortexed for 5 s, resuspended at least three times with a micropipette and sonicated (Branson 3510, Danbury, CT, USA) for 15 min. Finally, samples were transferred into amber glass vials (Supelco, Bellefonte, PA, USA) with 250 µL glass inserts (Supelco) for further analysis on UHPLC-UV.
An Agilent 1290 UHPLC system (Agilent, Waldbronn, Germany) consisting of an autosampler, quaternary pump, degasser and DAD-detector (diode array detector) was used for all uptake measurements. […] All calculations concerning the evaluation of recorded data were made in MS Excel (Microsoft Corporation, Seattle, WA, USA). […]
The larval amount of hepatotoxicant (mg/kg) was calculated assuming the weight of a 3 or 4 dpf Tg(fabp10a:DsRed) zebrafish larva to be 0.25 mg.

[5] = system: Tg(fabp10a:DsRed) zebrafish larvae; test: Hepatotoxicity by quantification of DsRed-labeled hepatocytes using cell imaging counting (CIC); settings: for change in amount of recovered hepatocytes: any of the administration routes, vs non-treated animals; for Hepatotoxicity detected: number of Hepatocytes (CIC): 6 dpf, vs vehicle control
Experimental: We then used CIC and quantified ex vivo DsRed-labeled hepatocytes after dispase-digestion of hepatotoxicant-exposed larvae. […] Analysis was performed after three days of treatment (immersion) or three days after treatment (injection), at 6 dpf. A total of 10 and 12 larvae were used individually per condition for immersion and injections, respectively. The experiment was performed in triplicate and data were pooled. […] Means ± SD of the number of hepatocytes per larva are shown.
Compounds tested were dissolved in DMSO (stock solution) and then further diluted in Danieau’s solution with a final concentration of 1% DMSO or diluted with 0.9% NaCl solution (1:1 ratio) to obtain a working solution for immersion and yolk/pericardial injections, respectively. At 3 dpf, hatched Tg(fabp10a:DsRed) larvae were transferred to 24-well plates (Falcon®, Corning, Lasne, Belgium) with each well containing 10 larvae in 1 mL Danieau’s solution and the dissolved drug or the vehicle control for immersion. For yolk injections, and pericardial injections into the bloodstream via the common cardinal veins, 12 larvae were used for each condition, and each larva was injected with 1 nL of solution at 3 dpf.
In order to digest the larvae and separate hepatocytes from the liver, larvae were transferred to 96 well-plates (Falcon®, Corning, Lasne, Belgium) with one larva per well and incubated with 200 µL 2.5 mg dispase/mL DPBS for 4 h. […] The hepatocytes were dispersed by pipetting up and down 20 times with a 1 mL automatic pipette. After digestion, hepatocytes were positioned at the bottom of the well by centrifugation at 200× g (Jouan CR412 centrifuge, Jouan, Saint-Herblain, France) for 15 min.
Fluorescent hepatocytes present in the wells were imaged and counted on an IN Cell Analyzer 2000 using software IN Cell Investigator Developer Toolbox (GE Healthcare, Machelen, Belgium), with a 2×/0.1 NA lens, DsRed fluorescence channel, a 0.1-s exposure time, and the intensity segmentation (172-4095) set to ensure hepatocytes were recognized selectively.
Differences between drug-treated groups and control vehicle control (VHC) regarding numbers of hepatocytes and liver sizes were analyzed for statistical significance using an ANOVA test. Regarding the liver morphology, Fisher’s exact test was used for the analysis. p < 0.05 was considered statistically significant.

[6] = immersion, MC and lower concentrations
[7] = all three administration routes, MC/MD and dilutions

| Structure (SMILES) | MC: maximum non-toxic drug concentration [1] | lethality (larval death) [1] | MD: maximum non-toxic drug dose ([1]; pericardial injection at 3 dpf) | MD: maximum non-toxic drug dose ([1]; yolk injection at 3 dpf) | Hepatotoxicity detected: Morphology ([2]; immersion, MC) | Hepatotoxicity detected: Morphology ([2]; yolk injection, MD) | hepatotoxicity by liver size [3, 6] | Hepatotoxicity detected: Liver size ([3]; immersion, MC) | course of larval concentration after injection [4] | abnormal liver morphology [2, 7] | change in liver size [3] | change in amount of recovered hepatocytes [5] | also measured |
| --- | --- | --- | --- | --- | --- | --- | --- | --- | --- | --- | --- | --- | --- |
| CC(=O)Nc1ccc(O)cc1 [Paracetamol] | 7500 µM | caused larval death in several of the conditions tested | 604 ^1 mg/kg | 604 ^1 mg/kg | S | S | hepatotoxic only at their MC | S | fully excreted or metabolized after 24 h |  |  |  | Hepatotoxicity detected: Morphology ([2]; immersion, ½ MC): S; abnormal liver morphology ([2]; pericardial injections): no significant toxic effects; Hepatotoxicity detected: Morphology ([2]; yolk injection, ½ MD): S; hepatotoxicity by liver size ([3]; injected (yolk or pericardial)): exhibited an effect at its MD after yolk administration; Hepatotoxicity detected: Liver size ([3]; yolk injection, MD): S; half-life ([4]; Tg(fabp10a:DsRed), zebrafish, in vivo, after both yolk and pericardial injections (604 mg/kg), read-out: half-life of larval concentration): 6 to 8 h |
| C[C@@H]1O[C@@H](OC[C@H]2O[C@@H](Oc3c(-c4ccc(O)c(O)c4)oc4cc(O)cc(O)c4c3=O)[C@H](O)[C@@H](O)[C@@H]2O)[C@H](O)[C@H](O)[C@H]1O [Rutin] | 200 ^1 µM | did not induce lethality | 150 ^1 mg/kg | 150 ^1 mg/kg |  |  |  |  |  | did not induce abnormal liver morphology | did not induce any change in liver size | did not induce any change in the amount of recovered hepatocytes |  |
| OC[C@H]1O[C@@](CO)(O[C@H]2O[C@H](CO)[C@@H](O)[C@H](O)[C@H]2O)[C@@H](O)[C@@H]1O [Sucrose] | 8000 ^1 µM | did not induce lethality | 548 ^1 mg/kg | 548 ^1 mg/kg |  |  |  |  |  | did not induce abnormal liver morphology | did not induce any change in liver size | did not induce any change in the amount of recovered hepatocytes |  |
| CN(C)[C@@H]1C(O)=C(C(N)=O)C(=O)[C@@]2(O)C(O)=C3C(=O)c4c(O)cccc4[C@@](C)(O)[C@H]3C[C@@H]12 [Tetracycline] |  |  | 384 ^1 mg/kg | 192 mg/kg | S | S | hepatotoxic only at their MC | S | remained nearly constant | induced abnormal liver morphology in a dose-dependent manner |  |  | Hepatotoxicity detected: Morphology ([2]; pericardial injection, MD): S; Hepatotoxicity detected: Morphology ([2]; pericardial injection, ½ MD): S; Hepatotoxicity detected: number of Hepatocytes (CIC) ([5]; immersion, MC): S; hepatotoxicity by CIC hepatocyte count ([5]; immersion, three concentrations): hepatotoxic effects induced by all three tetracycline concentrations; Hepatotoxicity detected: number of Hepatocytes (CIC) ([5]; immersion, ¼ MC): S; Hepatotoxicity detected: number of Hepatocytes (CIC) ([5]; immersion, ½ MC): S; hepatotoxicity by CIC hepatocyte count ([5]; injected doses (yolk or pericardial)): showed no effects |
